Inconclusive results and toxic doses are left out. The calls were made as follows: active = survival T/C of 150% or more; inactive = T/C below 125% in these data.
System: P388 leukemia ip, CD2F1 mice, survival T/C
Test: NCI In Vivo Anticancer Drug Screen. Data for tumor model P388 Leukemia (intraperitoneal) in CD2F1 (CDF1) mice
Conditions: endpoint: median survival time, higher = longer survival
Outline: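 Mice carrying the transplanted tumor received test compound or vehicle. Survival was recorded in each group, and the value is the treated-group measurement divided by that of the vehicle-treated control group.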

[1] = dose: 100.0 mg/kg/injection, schedule: Q01DX009 (ip), vehicle: saline with Tween-80
[2] = dose: 50.0 mg/kg/injection, schedule: Q01DX005 (ip), vehicle: saline with Tween-80
[3] = dose: 100.0 mg/kg/injection, schedule: Q01DX005 (ip), vehicle: saline with Tween-80
[4] = dose: 200.0 mg/kg/injection, schedule: Q01DX005 (ip), vehicle: saline with Tween-80
[5] = dose: 50.0 mg/kg/injection, schedule: Q01DX005 (ip), vehicle: Klucel (hydroxypropylcellulose) (HPC)
[6] = dose: 100.0 mg/kg/injection, schedule: Q01DX005 (ip), vehicle: Klucel (hydroxypropylcellulose) (HPC)
[7] = dose: 50.0 mg/kg/injection, schedule: Q01DX009 (ip), vehicle: Klucel (hydroxypropylcellulose) (HPC)
[8] = dose: 60.0 mg/kg/injection, schedule: Q01DX005 (ip), vehicle: saline with Tween-80
[9] = dose: 120.0 mg/kg/injection, schedule: Q01DX005 (ip), vehicle: saline with Tween-80
[10] = dose: 240.0 mg/kg/injection, schedule: Q01DX005 (ip), vehicle: saline with Tween-80
[11] = dose: 50.0 mg/kg/injection, schedule: Q01DX009 (ip), vehicle: saline with Tween-80
[12] = dose: 60.0 mg/kg/injection, schedule: Q01DX005 (ip), vehicle: Klucel (hydroxypropylcellulose) (HPC)
[13] = dose: 120.0 mg/kg/injection, schedule: Q01DX005 (ip), vehicle: Klucel (hydroxypropylcellulose) (HPC)
[14] = dose: 240.0 mg/kg/injection, schedule: Q01DX005 (ip), vehicle: Klucel (hydroxypropylcellulose) (HPC)
[15] = dose: 6.25 mg/kg/injection, schedule: Q01DX009 (ip), vehicle: Klucel (hydroxypropylcellulose) (HPC)
[16] = dose: 100.0 mg/kg/injection, schedule: Q04DX003 (ip), vehicle: saline
[17] = dose: 200.0 mg/kg/injection, schedule: Q04DX003 (ip), vehicle: saline
[18] = dose: 200.0 mg/kg/injection, schedule: Q01DX005 (ip), vehicle: Klucel (hydroxypropylcellulose) (HPC)

Measured: T/C

CCC(C)Sc1nc(N)nc2c1ncn2C1OC(CO)C(O)C1O (centres undefined)
inactive: dose: 44.0 mg/kg/injection, schedule: Q01DX009 (ip), vehicle: saline with Tween-80 100 % of control | dose: 66.0 mg/kg/injection, schedule: Q01DX009 (ip), vehicle: saline with Tween-80 100 % of control | [1] 95 % of control | dose: 150.0 mg/kg/injection, schedule: Q01DX009 (ip), vehicle: saline with Tween-80 104 % of control | dose: 176.0 mg/kg/injection, schedule: Q04DX003 (ip), vehicle: saline with Tween-80 114 % of control | dose: 200.0 mg/kg/injection, schedule: Q01DX009 (ip), vehicle: saline with Tween-80 120 % of control | dose: 264.0 mg/kg/injection, schedule: Q04DX003 (ip), vehicle: saline with Tween-80 123 % of control

Cc1c(-c2ccccc2)oc(=O)c(Cl)c1N(c1ccccc1)c1ccccc1
inactive: [2] 93 % of control | [3] 98 % of control | [4] 90 % of control

NCC(CC(=O)O)c1ccc(Cl)cc1 (centres undefined)
inactive: [5] 94 % of control | [6] 93 % of control

CCOC(=O)CC1NC(=O)CNC1=O (centres undefined)
inactive: dose: 60.0 mg/kg/injection, schedule: Q01DX005 (ip), vehicle: saline 100 % of control | dose: 120.0 mg/kg/injection, schedule: Q01DX005 (ip), vehicle: saline 101 % of control | dose: 240.0 mg/kg/injection, schedule: Q01DX005 (ip), vehicle: saline 100 % of control

CSc1nc(COC(=O)NC(C)C)c(COC(=O)NC(C)C)n1-c1ccccc1
inactive: dose: 12.5 mg/kg/injection, schedule: Q01DX005 (ip), vehicle: Klucel + Tween-80 111 % of control | dose: 25.0 mg/kg/injection, schedule: Q01DX005 (ip), vehicle: Klucel + Tween-80 101 % of control | dose: 50.0 mg/kg/injection, schedule: Q01DX005 (ip), vehicle: Klucel + Tween-80 95 % of control | dose: 100.0 mg/kg/injection, schedule: Q01DX005 (ip), vehicle: Klucel + Tween-80 97 % of control | dose: 200.0 mg/kg/injection, schedule: Q01DX005 (ip), vehicle: Klucel + Tween-80 90 % of control | dose: 400.0 mg/kg/injection, schedule: Q01DX005 (ip), vehicle: Klucel + Tween-80 100 % of control

O=c1cc(-c2ccccc2)oc2c(O)c(O)cc(O)c12
inactive: dose: 50.0 mg/kg/injection, schedule: Q04DX003 (ip), vehicle: Klucel (hydroxypropylcellulose) (HPC) 105 % of control | dose: 100.0 mg/kg/injection, schedule: Q04DX003 (ip), vehicle: Klucel (hydroxypropylcellulose) (HPC) 104 % of control | dose: 200.0 mg/kg/injection, schedule: Q04DX003 (ip), vehicle: Klucel (hydroxypropylcellulose) (HPC) 100 % of control | dose: 400.0 mg/kg/injection, schedule: Q04DX003 (ip), vehicle: Klucel (hydroxypropylcellulose) (HPC) 92 % of control

CCSC(=S)NC#N
inactive: [7] 109 % of control | dose: 100.0 mg/kg/injection, schedule: Q01DX009 (ip), vehicle: Klucel (hydroxypropylcellulose) (HPC) 93 % of control | dose: 200.0 mg/kg/injection, schedule: Q01DX009 (ip), vehicle: Klucel (hydroxypropylcellulose) (HPC) 88 % of control

CCc1cccc2c(NCCCCNc3c4ccccc4nc4c(CC)cccc34)c3ccccc3nc12
inactive: dose: 0.62 mg/kg/injection, schedule: Q## X009 (ip), vehicle: lactic acid 93 % of control | dose: 1.25 mg/kg/injection, schedule: Q## X009 (ip), vehicle: lactic acid 100 % of control | dose: 2.5 mg/kg/injection, schedule: Q## X009 (ip), vehicle: lactic acid 99 % of control | dose: 5.0 mg/kg/injection, schedule: Q## X009 (ip), vehicle: lactic acid 91 % of control

CCC(c1ccc(O)cc1)c1cc2c(cc1OCCO)OCO2 (centres undefined)
inactive: [2] 95 % of control | [3] 98 % of control | [4] 95 % of control

CN(C)c1ccc(/C=N/NC(=O)CC2CCCCC2)cc1
inactive: [8] 100 % of control | [9] 108 % of control | [10] 102 % of control

C=C1C(=O)OC2/C=C(\C)CC(O)/C=C(\C)CC(OC(=O)/C(=C\C)COC(C)=O)C12 (centres undefined)
inactive: dose: 6.25 mg/kg/injection, schedule: Q01DX009 (ip), vehicle: saline with Tween-80 98 % of control | dose: 12.5 mg/kg/injection, schedule: Q01DX009 (ip), vehicle: saline with Tween-80 97 % of control | dose: 25.0 mg/kg/injection, schedule: Q01DX009 (ip), vehicle: saline with Tween-80 104 % of control | [11] 104 % of control

CCOC(=O)c1ccc(NC(=O)Nc2ccc(Nc3ccccc3)cc2)cc1
inactive: [12] 95 % of control | [13] 92 % of control | [14] 88 % of control

C/C(=C/c1cc(Br)c2c(c1)OCO2)[N+](=O)[O-]
inactive: dose: 100.0 mg/kg/injection, schedule: Q01DX001 (ip), vehicle: saline with Tween-80 110 % of control | dose: 200.0 mg/kg/injection, schedule: Q01DX001 (ip), vehicle: saline with Tween-80 100 % of control | dose: 400.0 mg/kg/injection, schedule: Q01DX001 (ip), vehicle: saline with Tween-80 99 % of control

COc1ccc(/C(C[P+](c2ccccc2)(c2ccccc2)c2ccccc2)=N/OC(C)(C)OC)cc1
inactive: [15] 98 % of control | dose: 12.5 mg/kg/injection, schedule: Q01DX009 (ip), vehicle: Klucel (hydroxypropylcellulose) (HPC) 100 % of control | dose: 25.0 mg/kg/injection, schedule: Q01DX009 (ip), vehicle: Klucel (hydroxypropylcellulose) (HPC) 106 % of control | [7] 101 % of control

COC(=O)C(C(=O)OC)=C1C(=O)OCC1(C)C
inactive: [16] 101 % of control | [17] 100 % of control | dose: 400.0 mg/kg/injection, schedule: Q04DX003 (ip), vehicle: saline 100 % of control

CCC(=O)c1ccc(O)c(O)c1
inactive: [11] 104 % of control | [1] 105 % of control

CC(C)CC([NH-])C(=O)O.CC(C)CC([NH-])C(=O)O.CC(C)CC([NH-])C(=O)O.[Pr+3] (centres undefined)
inactive: [5] 107 % of control | [6] 102 % of control | [18] 98 % of control

Clc1ccc2nc(Cl)[nH]c2c1
inactive: [5] 102 % of control | [6] 100 % of control | [18] 99 % of control

CC1(C)CC2C=C(C=O)C3(C=O)CC3(C)C2C1 (centres undefined)
inactive: dose: 0.78 mg/kg/injection, schedule: Q01DX009 (ip), vehicle: Klucel (hydroxypropylcellulose) (HPC) 96 % of control | dose: 1.56 mg/kg/injection, schedule: Q01DX009 (ip), vehicle: Klucel (hydroxypropylcellulose) (HPC) 112 % of control | dose: 3.12 mg/kg/injection, schedule: Q01DX009 (ip), vehicle: Klucel (hydroxypropylcellulose) (HPC) 111 % of control | [15] 111 % of control

N#C/C(=C\c1ccccn1)c1ccc(Cl)cc1
inactive: dose: 18.75 mg/kg/injection, schedule: Q01DX009 (none), vehicle: saline 100 % of control | dose: 37.5 mg/kg/injection, schedule: Q01DX009 (none), vehicle: saline 99 % of control | dose: 75.0 mg/kg/injection, schedule: Q01DX009 (none), vehicle: saline 90 % of control

CN(C)CC(CN(C)C)C(=O)/C=C/c1ccccc1
inactive: dose: 1.56 mg/kg/injection, schedule: Q01DX005 (ip), vehicle: saline 99 % of control | dose: 3.12 mg/kg/injection, schedule: Q01DX005 (ip), vehicle: saline 107 % of control

CNC(=O)Nc1nncs1
inactive: [8] 106 % of control | [9] 104 % of control | [10] 106 % of control

C/C(=C(/O)c1ccc(Cl)cc1)c1nc2cc(Cl)cc([N+](=O)[O-])c2[nH]c1=O
inactive: [12] 100 % of control | [13] 107 % of control | [14] 111 % of control

Nc1nc2c(c(=O)[nH]1)[N+]1=CN(c3ccc(C(=O)NC(CCC(=O)O)C(=O)O)cc3)CC1CC2 (centres undefined)
inactive: dose: 50.0 mg/kg/injection, schedule: Q01DX001 (ip), vehicle: saline 96 % of control | dose: 50.0 mg/kg/injection, schedule: Q04DX003 (ip), vehicle: saline 97 % of control | dose: 100.0 mg/kg/injection, schedule: Q01DX001 (ip), vehicle: saline 94 % of control | [16] 100 % of control | dose: 200.0 mg/kg/injection, schedule: Q01DX001 (ip), vehicle: saline 94 % of control | [17] 96 % of control

Reference: PubChem BioAssay AID330 (DTP/NCI, 2004)
